# Values joined by “and” are separate entries in the source; they are usually repeats but may differ in a detail not shown here. Identical values can stand only once. Like-named read-outs stand apart in the source and are kept apart here.
# Tests used:
# PI3Kα^WT (p110α/p85α) = target: T1, PI3Kα^WT (p110α/p85α) (Homo sapiens, UniProt P42336); assay: PI3K homogenous time-resolved fluorescence (HTRF) lipid kinase IC50 determination; format: biochemical; conditions: HTRF assay using PIP2 as substrate; Mean ± SD, n=2; enzyme 40 ng/ml; read-out: IC50 PI3Kα (Table S3)
# T1 construct: made in house; host or cells: Sf9 insect cells (baculovirus)
# T1 sequence (P42336 whole entry): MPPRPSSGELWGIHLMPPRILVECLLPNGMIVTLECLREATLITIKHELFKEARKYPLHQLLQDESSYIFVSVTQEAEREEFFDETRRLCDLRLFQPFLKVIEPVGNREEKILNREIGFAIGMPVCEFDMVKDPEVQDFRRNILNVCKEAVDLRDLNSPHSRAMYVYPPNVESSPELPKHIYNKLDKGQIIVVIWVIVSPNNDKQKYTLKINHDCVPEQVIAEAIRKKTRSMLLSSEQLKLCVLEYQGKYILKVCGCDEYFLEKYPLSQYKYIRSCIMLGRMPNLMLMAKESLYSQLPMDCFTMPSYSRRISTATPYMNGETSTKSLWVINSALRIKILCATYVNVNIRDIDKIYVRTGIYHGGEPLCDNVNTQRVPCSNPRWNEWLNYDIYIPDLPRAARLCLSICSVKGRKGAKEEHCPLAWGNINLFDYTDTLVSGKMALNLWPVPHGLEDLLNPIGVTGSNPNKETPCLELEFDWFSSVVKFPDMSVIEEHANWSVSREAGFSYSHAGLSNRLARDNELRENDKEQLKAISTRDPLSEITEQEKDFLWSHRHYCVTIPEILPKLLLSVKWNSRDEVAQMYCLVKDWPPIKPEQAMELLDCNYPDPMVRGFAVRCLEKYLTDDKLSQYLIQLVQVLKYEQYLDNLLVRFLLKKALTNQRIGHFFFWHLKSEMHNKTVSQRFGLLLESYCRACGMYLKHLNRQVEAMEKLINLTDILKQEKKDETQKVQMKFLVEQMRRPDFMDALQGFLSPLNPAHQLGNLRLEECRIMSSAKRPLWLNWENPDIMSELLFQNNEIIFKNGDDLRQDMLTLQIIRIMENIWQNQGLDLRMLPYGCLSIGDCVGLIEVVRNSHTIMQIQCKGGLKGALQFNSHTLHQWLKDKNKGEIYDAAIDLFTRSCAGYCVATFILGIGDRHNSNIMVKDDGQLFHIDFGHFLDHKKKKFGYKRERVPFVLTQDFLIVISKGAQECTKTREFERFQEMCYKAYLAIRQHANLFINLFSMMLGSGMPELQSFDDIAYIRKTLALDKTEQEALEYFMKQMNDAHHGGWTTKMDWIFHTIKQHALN
# T1 sequence (P27986 whole entry partner): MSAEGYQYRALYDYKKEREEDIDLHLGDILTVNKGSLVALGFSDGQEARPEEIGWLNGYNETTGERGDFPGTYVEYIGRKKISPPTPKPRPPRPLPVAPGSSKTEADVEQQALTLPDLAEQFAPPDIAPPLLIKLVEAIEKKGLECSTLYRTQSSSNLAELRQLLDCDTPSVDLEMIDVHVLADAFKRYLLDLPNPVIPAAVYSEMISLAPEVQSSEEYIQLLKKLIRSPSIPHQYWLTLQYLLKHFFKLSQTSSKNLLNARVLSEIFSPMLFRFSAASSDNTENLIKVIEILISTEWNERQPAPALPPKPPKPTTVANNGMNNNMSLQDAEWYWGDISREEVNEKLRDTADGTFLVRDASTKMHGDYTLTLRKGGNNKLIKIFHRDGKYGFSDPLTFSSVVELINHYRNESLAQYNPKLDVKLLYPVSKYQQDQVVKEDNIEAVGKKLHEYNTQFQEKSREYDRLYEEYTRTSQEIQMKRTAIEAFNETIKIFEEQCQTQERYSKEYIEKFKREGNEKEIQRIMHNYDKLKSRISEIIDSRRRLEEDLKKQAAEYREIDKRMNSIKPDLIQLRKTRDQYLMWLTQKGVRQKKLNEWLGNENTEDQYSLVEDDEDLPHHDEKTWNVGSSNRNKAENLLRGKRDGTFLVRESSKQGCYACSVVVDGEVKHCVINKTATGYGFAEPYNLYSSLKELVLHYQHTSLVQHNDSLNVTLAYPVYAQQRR
# Method: (§1) IC50 values were determined using the PI3K homogenous time-resolved fluorescence assay (Merck Millipore, #33-016) following the manufacturer's instructions as previously described. […] Data was graphed and analysed with Graphpad Prism 6, nonlinear regression with log(inhibitor) vs. response and constraints set at 0% and 100%.
# (§2) (1 picture or pasted object on this page, not shown here)
# (§3) Enzymes were used at PI3KαWT 40 ng/ml, PI3KβWT as either 400 ng/ml or 300 ng/ml,
# (§4) and PI3K δWT was 65 ng/ml. Plates were read on a PHERAStar HTS microplate reader
# PI3Kβ^WT (p110β/p85α) = target: T2, PI3Kβ^WT (p110β/p85α) (Homo sapiens, UniProt P42338); assay: PI3K HTRF lipid kinase IC50 determination; format: biochemical
# T2 construct: made in house; host or cells: Sf9 insect cells (baculovirus)
# T2 sequence (P42338 whole entry, species assumed): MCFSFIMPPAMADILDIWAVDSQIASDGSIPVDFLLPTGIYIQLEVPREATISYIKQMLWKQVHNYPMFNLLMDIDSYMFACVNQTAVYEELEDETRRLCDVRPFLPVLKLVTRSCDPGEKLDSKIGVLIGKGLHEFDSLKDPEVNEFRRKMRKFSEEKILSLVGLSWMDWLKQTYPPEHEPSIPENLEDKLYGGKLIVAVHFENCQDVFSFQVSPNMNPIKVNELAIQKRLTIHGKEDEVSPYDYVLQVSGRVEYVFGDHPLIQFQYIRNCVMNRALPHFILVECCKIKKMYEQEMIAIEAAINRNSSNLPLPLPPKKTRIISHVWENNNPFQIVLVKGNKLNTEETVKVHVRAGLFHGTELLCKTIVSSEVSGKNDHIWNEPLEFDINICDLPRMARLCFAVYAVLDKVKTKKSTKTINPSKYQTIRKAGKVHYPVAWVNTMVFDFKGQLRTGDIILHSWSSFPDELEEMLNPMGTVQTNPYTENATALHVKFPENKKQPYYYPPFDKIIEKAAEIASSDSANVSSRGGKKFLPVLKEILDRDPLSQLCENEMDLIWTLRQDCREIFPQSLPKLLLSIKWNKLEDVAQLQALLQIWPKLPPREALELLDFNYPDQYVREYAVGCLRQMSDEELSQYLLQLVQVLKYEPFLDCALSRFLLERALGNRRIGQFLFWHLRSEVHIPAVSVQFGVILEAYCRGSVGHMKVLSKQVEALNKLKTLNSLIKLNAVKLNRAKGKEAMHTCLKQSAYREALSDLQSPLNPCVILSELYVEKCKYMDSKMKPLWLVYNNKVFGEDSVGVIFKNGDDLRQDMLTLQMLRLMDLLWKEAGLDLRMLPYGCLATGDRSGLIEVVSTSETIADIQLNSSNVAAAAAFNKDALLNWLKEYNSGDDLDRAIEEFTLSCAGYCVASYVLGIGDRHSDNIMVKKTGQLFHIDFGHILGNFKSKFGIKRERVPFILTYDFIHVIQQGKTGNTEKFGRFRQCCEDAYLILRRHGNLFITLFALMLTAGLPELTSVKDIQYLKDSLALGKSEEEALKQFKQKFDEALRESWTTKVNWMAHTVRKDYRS
# T2 sequence (P27986 whole entry partner, species assumed): as the sequence (P27986 whole entry partner) above
# Method: as §1, §2, §3, §4
# PI3Kδ^WT (p110δ/p85α) = target: T3, PI3Kδ^WT (p110δ/p85α) (Homo sapiens, UniProt O00329); assay: PI3K HTRF lipid kinase IC50 determination; format: biochemical; conditions: HTRF assay using PIP2 as substrate; Mean ± SD, n=2; enzyme 65 ng/ml; read-out: IC50 PI3K (third column of Table S3, probably PI3Kδ)
# T3 construct: made in house; host or cells: Sf9 insect cells (baculovirus)
# Method: as §1, §2, §3, §4
# PI3Kα^WT [1] = target: T4, PI3Kα^WT (Homo sapiens, UniProt P42336); assay: BLI membrane binding assay (immobilised liposomes); conditions: for effect on P2pY-activated PI3Kα^WT membrane interaction (BLI wavelength shift): 1 µM PI3Kα^WT, 300 s, GSK2126458 4 µM, PIK-75 20 µM, 6 4 µM, 7 10 µM, GDC0032 10 µM, AS252424 10 µM, AMP-PNP 2 mM with 5 mM Mg2+; for Bmax (binding capacity) of PI3Kα^WT membrane interaction in presence of inhibitor: pY activated, inhibitor:protein 4:1, Mean ± SEM
# T4 construct: using full length PI3Kα^WT and PI3Kα^H1047R up to 1 μM; made in house; host or cells: Sf9 insect cells (baculovirus)
# Method: BLI is a label-free dip-and-read method that uses wavelength changes in reflected incidental white light to report on changes in thickness of the lipid vesicles immobilised on a biosensor from protein binding.
# (§5) BLI experiments were carried out with a BLItz® System (ForteBIO) using aminopropylsilane (APS) biosensors. The APS biosensors (ForteBIO #18-5045) were hydrated for 15–20 min in either Tris or HEPES liposome buffer. The program option used was Advanced Kinetics. Liposome membrane preparation was performed using a 0.5 mg/ml liposome solution of PIP2: PS: PE: PC: C: S (Avanti polar lipids) in the mass percentages of 5: 20: 45: 15: 10: 5. Liposomes without PIP2 were prepared as PS: PE: PC: C: S in the percentage of […]. Liposomes without PS were prepared as PIP2: PE: PC: C: S in the percentage of 5: 65: 15: 10: 5. […] P2pY and inhibitor, or DMSO only were also added to achieve a final protein concentration of 200 μg/ml, a pY concentration of 10 μM, and total DMSO content of 3%. The mixture was incubated at room temperature for 10 min prior to the protein association experiments. The membrane coated biosensors were first dipped in Buffer D containing 3% DMSO for 30 s to set an initial baseline, and transferred to the protein in the presence or absence of inhibitor. Protein binding was followed for 300 s, and then the biosensors were dipped in Buffer D with 3% DMSO again for 300 s for protein dissociation. […] PI3Kα^M1043I used 0.125, 0.25, 0.5, 1 and 1.57 µM. The results of liposome loading and protein association were then analysed and graphed using GraphPad Prism 6.
# Target sequence in this assay (P42336 whole entry): as the sequence (P42336 whole entry) above
# Target sequence in this assay (P27986 2-724 partner): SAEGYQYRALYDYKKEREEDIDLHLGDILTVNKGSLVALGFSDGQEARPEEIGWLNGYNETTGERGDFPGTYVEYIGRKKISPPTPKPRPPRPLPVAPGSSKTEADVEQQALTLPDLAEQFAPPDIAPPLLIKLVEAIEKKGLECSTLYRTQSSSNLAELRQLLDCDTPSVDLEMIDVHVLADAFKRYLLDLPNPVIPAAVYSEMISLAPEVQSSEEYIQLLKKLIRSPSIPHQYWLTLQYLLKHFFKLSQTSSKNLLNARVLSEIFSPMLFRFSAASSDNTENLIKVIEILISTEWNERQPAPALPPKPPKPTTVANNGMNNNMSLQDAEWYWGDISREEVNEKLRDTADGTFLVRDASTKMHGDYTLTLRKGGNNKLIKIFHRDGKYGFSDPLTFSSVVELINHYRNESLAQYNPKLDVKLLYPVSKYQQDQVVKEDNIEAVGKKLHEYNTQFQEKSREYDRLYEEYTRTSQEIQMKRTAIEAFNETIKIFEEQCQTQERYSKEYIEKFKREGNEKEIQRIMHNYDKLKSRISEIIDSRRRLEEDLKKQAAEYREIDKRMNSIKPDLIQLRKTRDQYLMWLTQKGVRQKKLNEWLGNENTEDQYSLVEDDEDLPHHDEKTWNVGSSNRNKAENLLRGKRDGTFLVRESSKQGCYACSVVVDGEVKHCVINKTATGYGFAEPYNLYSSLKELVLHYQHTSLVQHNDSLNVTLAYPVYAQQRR
# p110γ [2] = target: T5, p110γ (Homo sapiens, UniProt P48736); assay: PI3K HTRF lipid kinase IC50 determination; format: biochemical; conditions: Table S1, this study; a = N=2 individual data shown, b = N=1; read-out: IC50 p110γ WT
# T5 construct: made in house; host or cells: Sf9 insect cells (baculovirus)
# T5 sequence (P48736 whole entry, species assumed): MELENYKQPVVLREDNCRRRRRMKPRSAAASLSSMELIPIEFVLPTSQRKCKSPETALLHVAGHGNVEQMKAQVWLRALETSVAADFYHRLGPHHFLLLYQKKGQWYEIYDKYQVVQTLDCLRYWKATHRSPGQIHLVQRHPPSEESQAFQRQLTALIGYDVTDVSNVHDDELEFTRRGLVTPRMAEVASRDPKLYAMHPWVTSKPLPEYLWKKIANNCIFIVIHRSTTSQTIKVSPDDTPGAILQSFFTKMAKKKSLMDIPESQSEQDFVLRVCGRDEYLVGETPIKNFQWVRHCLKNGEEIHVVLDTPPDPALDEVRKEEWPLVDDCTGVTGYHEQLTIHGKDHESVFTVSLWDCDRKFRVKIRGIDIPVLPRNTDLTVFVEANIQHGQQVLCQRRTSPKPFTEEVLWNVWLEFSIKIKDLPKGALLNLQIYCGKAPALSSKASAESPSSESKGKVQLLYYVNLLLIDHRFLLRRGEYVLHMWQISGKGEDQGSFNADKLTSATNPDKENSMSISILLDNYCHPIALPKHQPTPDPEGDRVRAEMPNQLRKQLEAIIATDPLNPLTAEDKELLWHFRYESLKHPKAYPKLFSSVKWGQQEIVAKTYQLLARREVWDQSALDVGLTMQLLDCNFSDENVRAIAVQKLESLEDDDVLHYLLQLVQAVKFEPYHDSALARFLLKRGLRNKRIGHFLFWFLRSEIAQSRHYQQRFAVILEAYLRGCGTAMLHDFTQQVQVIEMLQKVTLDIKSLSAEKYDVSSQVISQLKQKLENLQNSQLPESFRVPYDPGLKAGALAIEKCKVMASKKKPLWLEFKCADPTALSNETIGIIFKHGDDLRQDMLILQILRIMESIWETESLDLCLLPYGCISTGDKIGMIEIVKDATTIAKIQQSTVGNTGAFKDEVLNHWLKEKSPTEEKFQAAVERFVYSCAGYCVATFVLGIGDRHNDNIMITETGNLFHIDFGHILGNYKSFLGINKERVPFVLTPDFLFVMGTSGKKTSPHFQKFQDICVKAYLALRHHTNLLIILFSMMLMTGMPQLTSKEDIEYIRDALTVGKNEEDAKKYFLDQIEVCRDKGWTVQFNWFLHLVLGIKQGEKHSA
# Method: as §1, §2
# p110γ [3] = target: T5, p110γ; parameters: method as in earlier work; conditions: Table S1, rows marked #; ref S1; read-out: IC50 p110γ WT; cited from earlier work
# PI3Kα^WT [4] = target: T4, PI3Kα^WT; assay: FRET membrane binding assay (dansyl-PS liposomes); conditions: P1pY-activated 0.5 μM PI3Kα^WT; inhibitor 31.25 nM to 2 μM
# Target sequence in this assay (P42336 whole entry): as the sequence (P42336 whole entry) above
# Target sequence in this assay (P27986 whole entry partner): as the sequence (P27986 whole entry partner) above
# Method: The FRET-based assay directly monitors the interaction by measuring energy transfer from tryptophan residues in PI3Kα to dansyl-labelled phosphatidylserine (PS) lipids embedded within the synthetic membrane.
# Liposomes were prepared with PIP2: phosphatidylserine (PS): phosphatidlyethanol (PE): phosphatidylcholine (PC): Cholesterol (C): Sphingomyelin (S): Dansyl PS (Avanti polar lipids) in the percentage of 5: 20: 35: 15: 10: 5: 10. Inhibitors were solubilised in 100% DMSO, and were diluted to 10% DMSO with Buffer C (30 mM HEPES pH 7.5, 50 mM NaCl), before being serially diluted to desired concentrations in 30 mM HEPES pH 7.5, 50 mM NaCl with 10% DMSO. […] Compounds were used at 5-fold the final concentration and 2 μl was added to 5 μl of enzyme in a 384-well plate, the plate was sealed and the mixture was allowed to equilibrate at room temperature for 10 min with shaking at 450 rpm. Liposomes were then added to the mixture to give a final liposome concentration of 50 μg/ml and a final reaction volume of 10 μl, and the plate was incubated at room temperature for 10 min with shaking at 450 rpm. […] The FRET signal was measured as I-I0 (intensity at 520 nm for protein and liposome solution — intensity at 520 nm for liposome only solution). […] The compound only I-I0 was then subtracted from the I-I0 of the protein-compound complex. […] Data were then graphed and analysed with GraphPad Prism 6.
# PI3Kα^H1047R = target: T6, PI3Kα^H1047R (Homo sapiens, UniProt P42336, H1047R); assay: BLI membrane binding assay (immobilised liposomes); conditions: pY activated, inhibitor:protein 4:1, Mean ± SEM
# T6 construct: Full length PI3Kα^WT or PI3Kα^H1047R was diluted with Buffer D; made in house; host or cells: Sf9 insect cells (baculovirus)
# T6 sequence (P42336 whole entry H1047R): as the sequence (P42336 whole entry) above, with H1047R counted along it
# T6 sequence (P27986 whole entry partner): as the sequence (P27986 whole entry partner) above
# Method: as §5
# PI3Kα^E545K = PI3Kα^E545K (Homo sapiens, UniProt P42336, E545K); assay: BLI membrane binding assay (immobilised liposomes); conditions: 4 µM inhibitor, 1 µM enzyme, +pY, 300 s
# Method: (§6) Figure 6. […] The data are shown as Mean ± SD; PI3Kα^WT +pY n = 7; PI3Kα^WT +pY + GSK n = 5; PI3Kα^WT −pY n = 4; PI3Kα^WT −pY + GSK n = 3. (B) Effect of GSK on the BLI wavelength shift (λ) on membrane binding by PI3Kα^WT, the PI3Kα^E545K oncogenic mutant, class IA PI3Kβ^WT and class IA PI3Kδ^WT enzymes. In all experiments inhibitors were tested at 4 µM with 1 µM of the different enzymes and membrane binding was followed by BLI for 300 s.
# as §5
# PI3Kβ^WT = target: T7, PI3Kβ^WT (Homo sapiens, UniProt P42338); assay: BLI membrane binding assay (immobilised liposomes); conditions: 4 µM inhibitor, 1 µM enzyme, +pY, 300 s
# T7 construct: made in house; host or cells: Sf9 insect cells (baculovirus)
# Method: as §6, §5
# PI3Kδ^WT = target: T8, PI3Kδ^WT (Homo sapiens, UniProt O00329); assay: BLI membrane binding assay (immobilised liposomes); conditions: 4 µM inhibitor, 1 µM enzyme, +pY, 300 s
# T8 construct: made in house; host or cells: Sf9 insect cells (baculovirus)
# Method: as §6, §5
# PI3Kα C420R mutant = PI3Kα C420R mutant (Homo sapiens, UniProt P42336, C420R); assay: BLI membrane binding assay, concentration response; conditions: P2pY activated; protein to GSK2126458 ratio 1:4
# Method: as §5, with “6. […]” for “6.”
# (§7) membrane binding parameters. (A) Concentration response curves for PI3Kα oncogenic mutant proteins. Data is shown as the Mean ± SEM (number of biosensors for each data point is n≥3). A one site-specific binding model was used to fit the data. The […]
# as §2
# PI3Kα G1049R mutant = PI3Kα G1049R mutant (Homo sapiens, UniProt P42336, G1049R); assay: BLI membrane binding assay, concentration response; conditions: P2pY activated; protein to GSK2126458 ratio 1:4
# Method: as §5, with “6. […]” for “6.”
# as §7, §2
# PI3Kα G106V mutant = PI3Kα G106V mutant (Homo sapiens, UniProt P42336, G106V); assay: BLI membrane binding assay, concentration response; conditions: P2pY activated; protein to GSK2126458 ratio 1:4
# Chain of PI3Kα G106V mutant (P42336 whole entry G106V): as the sequence (P42336 whole entry) above, with G106V counted along it
# Chain of PI3Kα G106V mutant (P27986 whole entry partner): as the sequence (P27986 whole entry partner) above
# Method: as §5, with “6. […]” for “6.”
# as §7, §2
# PI3Kα G118D mutant = PI3Kα G118D mutant (Homo sapiens, UniProt P42336, G118D); assay: BLI membrane binding assay, concentration response; conditions: P2pY activated; protein to GSK2126458 ratio 1:4
# Method: as §5, with “6. […]” for “6.”
# as §7, §2
# PI3Kα M1043I mutant = PI3Kα M1043I mutant (Homo sapiens, UniProt P42336, M1043I); assay: BLI membrane binding assay, concentration response; conditions: P2pY activated; protein to GSK2126458 ratio 1:4
# Method: as §5, with “6. […]” for “6.”
# as §7, §2
# PI3Kα N345K mutant = PI3Kα N345K mutant (Homo sapiens, UniProt P42336, N345K); assay: BLI membrane binding assay, concentration response; conditions: P2pY activated; protein to GSK2126458 ratio 1:4
# Method: as §5, with “6. […]” for “6.”
# as §7, §2
compound,measurement,setting,value
COc1ncc(-c2ccc3cccc(-c4ccnnc4)c3c2)cc1NS(=O)(=O)c1ccc(F)cc1F [compound 6],IC50,PI3Kα^WT (p110α/p85α),0.46 ± 0.17 µM
COc1ncc(-c2ccc(-c3cnc4c(c3)CN(C)C4=O)s2)cc1NS(=O)(=O)c1ccc(F)cc1F [compound 7],IC50,PI3Kα^WT (p110α/p85α),16.8 ± 9.1 µM
same,IC50,"PI3Kβ^WT (p110β/p85α); HTRF assay using PIP2 as substrate, Mean ± SD, n=2, enzyme 400 or 300 ng/ml, read-out: IC50 PI3K (second column of Table S3, probably PI3Kβ)",242 ± 308 µM
same,IC50,PI3Kδ^WT (p110δ/p85α),8.6 ± 2.1 µM
same,effect on P2pY-activated PI3Kα^WT membrane interaction (BLI wavelength shift),PI3Kα^WT [1],retained the ability to decrease
Cc1nc(-c2cn3c(n2)-c2ccc(-c4cnn(C(C)(C)C(N)=O)c4)cc2OCC3)n(C(C)C)n1 [GDC0032],IC50,"PI3Kβ^WT (p110β/p85α); Table S1, this study, a = N=2 individual data shown, b = N=1, read-out: IC50 PI3Kβ WT",0.064 µM and 0.113 µM
same,IC50,p110γ [2],0.0046 µM and 0.0032 µM
Cc1ccc([N+](=O)[O-])cc1S(=O)(=O)N(C)/N=C/c1cnc2ccc(Br)cn12 [PIK-75],IC50,p110γ [3],0.043 ± 0.021 µM
O=C1NC(=O)/C(=C/c2ccc(-c3ccc(F)cc3O)o2)S1 [AS252424],effect on P2pY-activated PI3Kα^WT membrane interaction (BLI wavelength shift),PI3Kα^WT [1],some evidence of positive modulation
Nc1ncnc2c1ncn2[C@@H]1O[C@H](COP(=O)(O)OP(=O)(O)NP(=O)(O)O)[C@@H](O)[C@H]1O [AMP-PNP],effect on P2pY-activated PI3Kα^WT membrane interaction (BLI wavelength shift),PI3Kα^WT [1],could promote the enzymes membrane interaction
"FC(F)c1nc2ccccc2n1-c1nc(N2CCOCC2)nc(N2CCOCC2)n1 [ZSTK474, 2-(difluoromethyl)-1-[4,6-di(4-morpholinyl)-1,3,5-triazin-2-yl]-1H-benzimidazole]",maximum reduction in FRET signal,PI3Kα^WT [4],50%
COc1ncc(-c2ccc3nccc(-c4ccnnc4)c3c2)cc1NS(=O)(=O)c1ccc(F)cc1F [GSK2126458],maximum reduction in FRET signal,PI3Kα^WT [4],85%
same,Bmax (binding capacity) of PI3Kα^WT membrane interaction in presence of inhibitor,PI3Kα^WT [1]; liposomes 0% PIP2 + 20% PS,1.5 ± 0.1 λ nm
same,Bmax (binding capacity) of PI3Kα^WT membrane interaction in presence of inhibitor,PI3Kα^WT [1]; liposomes 5% PIP2 + 20% PS,1.9 ± 0.1 λ nm
same,Bmax (binding capacity) of PI3Kα^H1047R membrane interaction in presence of inhibitor,PI3Kα^H1047R; liposomes 0% PIP2 + 20% PS,4.3 ± 0.3 λ nm
same,Bmax (binding capacity) of PI3Kα^H1047R membrane interaction in presence of inhibitor,PI3Kα^H1047R; liposomes 5% PIP2 + 0% PS,4.6 ± 0.3 λ nm
same,Bmax (binding capacity) of PI3Kα^H1047R membrane interaction in presence of inhibitor,PI3Kα^H1047R; liposomes 5% PIP2 + 20% PS,5.0 ± 0.2 λ nm
same,effect on PI3Kα^E545K membrane interaction (BLI),PI3Kα^E545K,insensitive to regulation by GSK2126458
same,effect on PI3Kβ^WT membrane interaction (BLI),PI3Kβ^WT,insensitive to GSK2126458
same,effect on PI3Kδ^WT membrane interaction (BLI),PI3Kδ^WT,insensitive to GSK2126458
same,effect on C420R membrane interaction (BLI),PI3Kα C420R mutant,"sensitive to GSK2126458, with effects on the membrane interaction capacity"
same,effect on G1049R membrane interaction capacity (BLI),PI3Kα G1049R mutant,also sensitive to GSK2126458
same,effect on G106V membrane interaction capacity (BLI),PI3Kα G106V mutant,largest decrease in capacity of all those tested
same,effect on G118D membrane interaction (BLI),PI3Kα G118D mutant,changes in both capacity and affinity
same,effect on M1043I membrane interaction capacity (BLI),PI3Kα M1043I mutant,also sensitive to GSK2126458
same,effect on N345K membrane interaction (BLI),PI3Kα N345K mutant,"sensitive to GSK2126458, with effects on the membrane interaction capacity"
